# Tests used:
# Format in all cases: in vivo
# [1] = tested on: Amaranthus retoflexus (AMARE); experiment: Pre-emergence herbicidal glasshouse test on Amaranthus retoflexus; conditions: for PRE Application AMARE: pre-emergence application, Amaranthus retoflexus, damage score 1-5
# In short: (§1)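 Application rate 1000 g/h, formulated in acetone/water (50:50) with 0.5% Tween 20 and sprayed onto pots sown 1 day (pre-emergence) or 8 days (post-emergence) earlier. Evaluation at 13 days rated damage from 1 (0-19%) to 5 (80-100%).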
# Setaria faberi (SETFA) [2] = experiment: Pre-emergence herbicidal glasshouse test on Setaria faberi; conditions: for PRE Application SETFA: pre-emergence application, Setaria faberi, damage score 1-5
# In short: as §1
# Setaria faberi (SETFA) [3] = experiment: Post-emergence herbicidal glasshouse test on Setaria faberi; conditions: for POST Application SETFA: post-emergence application, Setaria faberi, damage score 1-5
# In short: as §1
# Solanum nigrum (SOLNI) [4] = experiment: Post-emergence herbicidal glasshouse test on Solanum nigrum; conditions: for POST Application SOLNI: post-emergence application, Solanum nigrum, damage score 1-5
# In short: as §1
# [5] = tested on: Echinochloa crus-galli (ECHCG); experiment: Pre-emergence herbicidal glasshouse test on Echinochloa crus-galli; conditions: for PRE Application ECHCG: pre-emergence application, Echinochloa crus-galli, damage score 1-5
# In short: as §1
# [6] = tested on: Alopecurus myosuroides (ALOMY); experiment: Post-emergence herbicidal glasshouse test on Alopecurus myosuroides; conditions: for POST Application ALOMY: post-emergence application, Alopecurus myosuroides, damage score 1-5
# In short: as §1
# [7] = tested on: Amaranthus retoflexus (AMARE); experiment: Post-emergence herbicidal glasshouse test on Amaranthus retoflexus; conditions: for POST Application AMARE: post-emergence application, Amaranthus retoflexus, damage score 1-5
# In short: as §1
# [8] = tested on: Alopecurus myosuroides (ALOMY); experiment: Pre-emergence herbicidal glasshouse test on Alopecurus myosuroides; conditions: for PRE Application ALOMY: pre-emergence application, Alopecurus myosuroides, damage score 1-5
# In short: as §1
# [9] = tested on: Ipomoea hederacea (IPOHE); experiment: Pre-emergence herbicidal glasshouse test on Ipomoea hederacea; conditions: for PRE Application IPOHE: pre-emergence application, Ipomoea hederacea, damage score 1-5
# In short: as §1
# [10] = tested on: Ipomoea hederacea (IPOHE); experiment: Post-emergence herbicidal glasshouse test on Ipomoea hederacea; conditions: for POST Application IPOHE: post-emergence application, Ipomoea hederacea, damage score 1-5
# In short: as §1
# [11] = tested on: Echinochloa crus-galli (ECHCG); experiment: Post-emergence herbicidal glasshouse test on Echinochloa crus-galli; conditions: for POST Application ECHCG: post-emergence application, Echinochloa crus-galli, damage score 1-5
# In short: as §1
# Solanum nigrum (SOLNI) [12] = experiment: Pre-emergence herbicidal glasshouse test on Solanum nigrum; conditions: for PRE Application SOLNI: pre-emergence application, Solanum nigrum, damage score 1-5
# In short: as §1
# [13] = pre-emergence, 1000 g/h, evaluated after 13 days
# [14] = post-emergence, 1000 g/h, evaluated after 13 days
SMILES,PRE Application AMARE [1],PRE Application SETFA (Setaria faberi (SETFA) [2]),POST Application SETFA (Setaria faberi (SETFA) [3]),POST Application SOLNI (Solanum nigrum (SOLNI) [4]),PRE Application ECHCG [5],POST Application ALOMY [6],POST Application AMARE [7],PRE Application ALOMY [8],PRE Application IPOHE [9],POST Application IPOHE [10],POST Application ECHCG [11],PRE Application SOLNI (Solanum nigrum (SOLNI) [12]),also measured
Cc1ccc(-n2cccc(-c3cnn(C)c(=O)c3O)c2=O)cc1 [Compound 9.017],–,–,–,–,–,–,–,–,–,–,–,–,"PRE Application AMARE herbicidal damage (five point scale) [1, 13]: 1 (1=0-19% damage); PRE Application SETFA herbicidal damage (five point scale) (Setaria faberi (SETFA) [2]; [13]): 1 (1=0-19% damage); POST Application SETFA herbicidal damage (five point scale) (Setaria faberi (SETFA) [3]; [14]): 2 (2=20-39% damage); POST Application SOLNI herbicidal damage (five point scale) (Solanum nigrum (SOLNI) [4]; [14]): 4 (4=60-79% damage); PRE Application ECHCG herbicidal damage (five point scale) [5, 13]: 1 (1=0-19% damage); POST Application ALOMY herbicidal damage (five point scale) [6, 14]: 2 (2=20-39% damage); POST Application AMARE herbicidal damage (five point scale) [7, 14]: 3 (3=40-59% damage); PRE Application ALOMY herbicidal damage (five point scale) [8, 13]: 2 (2=20-39% damage); PRE Application IPOHE herbicidal damage (five point scale) [9, 13]: 2 (2=20-39% damage); POST Application IPOHE herbicidal damage (five point scale) [10, 14]: 2 (2=20-39% damage); POST Application ECHCG herbicidal damage (five point scale) [11, 14]: 5 (5=80-100% damage); PRE Application SOLNI herbicidal damage (five point scale) (Solanum nigrum (SOLNI) [12]; [13]): 1 (1=0-19% damage)"
CCCn1c(-c2cccc(Cl)c2)ncc(-c2cnn(C)c(=O)c2O)c1=O [Compound 10.002],4 (4=60-79% damage),1 (1=0-19% damage),1 (1=0-19% damage),5 (5=80-100% damage),1 (1=0-19% damage),1 (1=0-19% damage),5 (5=80-100% damage),1 (1=0-19% damage),1 (1=0-19% damage),4 (4=60-79% damage),2 (2=20-39% damage),1 (1=0-19% damage),–
"Cn1ncc(-c2cnc(-c3cccc(F)c3)n(C3CCCCC3)c2=O)c(O)c1=O [Compound 10.003, 3-cyclohexyl-2-(3-fluorophenyl)-5-(5-hydroxy-1-methyl-6-oxo-pyridazin-4-yl)pyrimidin-4-one]",5 (5=80-100% damage),1 (1=0-19% damage),4 (4=60-79% damage),5 (5=80-100% damage),1 (1=0-19% damage),1 (1=0-19% damage),5 (5=80-100% damage),1 (1=0-19% damage),1 (1=0-19% damage),4 (4=60-79% damage),5 (5=80-100% damage),1 (1=0-19% damage),–
Cc1ccc(Cl)cc1-n1c(-c2cccc(F)c2)ncc(-c2cnn(C)c(=O)c2O)c1=O [Compound 10.004],2 (2=20-39% damage),1 (1=0-19% damage),3 (3=40-59% damage),5 (5=80-100% damage),1 (1=0-19% damage),1 (1=0-19% damage),5 (5=80-100% damage),1 (1=0-19% damage),1 (1=0-19% damage),4 (4=60-79% damage),4 (4=60-79% damage),1 (1=0-19% damage),–

# Source: patent US9693556B2, “Herbicidal pyridazinone derivatives” (SYNGENTA LIMITED, priority 2011, dated 2017)
